Source: US20210308173A1, “PHARMACEUTICAL COMPOSITION COMPRISING CYCLODEXTRIN COMPLEXES OF ANETHOLE TRITHIONE OR DERIVATIVES THEREOF” (priority 2018, published 2021)
Converted amounts (≈) assume the structure as drawn. Read-outs that look alike come from different tables or passages of the source.

Assay: Cyclodextrin-AOL solubility diagrams
Format: physicochemical
Conditions: for solubility: 4 °C; for solubility / solubility at 4 h: aqueous with cosolvent or surfactant or cyclodextrin, thermodynamic from solid
Description: A cyclodextrin-AOL solubility diagram would reveal the profile of the solubility curve of the AOL depending on the concentration of the cyclodextrin. The principle of this method is to add an excess of AOL to cyclodextrin solutions of increasing concentration, then to measure the amount of solubilized AOL. This method confirms the solubilization and evaluates more precisely the cyclodextrin solubilizing power, to define a stoichiometry of the complexes (molar and mass ratios) over the entire range of concentrations studied and to estimate the solubility limit and the stability of the mixtures.
The solubilization was carried out with HP-β-CD and SBE-β-CD in a range of concentration ranging from 2.5% to 40% (m/m) at 20° C., 25° C. and 30° C. To check the stability of the solution, a storage test at 4° C. for 48 hours was carried out with the solutions previously prepared at 20° C.
Aqueous solutions of cyclodextrin at in weight (m/m) concentrations of 2.5%, 5%, 10%, 20%, 30% and 40% were prepared in pure water. An excess of AOL was suspended in 2 mL each of these solutions. Each sample is shaken at 20° C., 25° C. or 30° C. for 4 hours (vortex at 1400 rpm). Each sample is centrifuged (12,500 g) and filtered through a 0.45 μm membrane.
The solubility of AOL in each test solution was quantified by HPLC as detailed in Example 2.

[1] = SBE-β-CD 20% (w/w), 20° C. followed by 48 hours at 4° C.
[2] = SBE-β-CD 30% (w/w), 20° C. followed by 48 hours at 4° C.
[3] = SBE-β-CD 40% (w/w), 20° C. followed by 48 hours at 4° C.

For COc1ccc(-c2cc(=S)ss2)cc1 [AOL, 5-(4-methoxyphenyl)-3H-1,2-dithiole-3-thione], the “CD/AOL weight ratio Rm” value (SBE-β-CD 20% (w/w), 20° C.) was 722, the “CD/AOL molar ratio RM” value [1] was 130 and the “CD/AOL weight ratio Rm” value [1] was 1211. The “CD/AOL molar ratio RM” value (SBE-β-CD 20% (w/w), 25° C.) was 63, the “CD/AOL weight ratio Rm” value (SBE-β-CD 20% (w/w), 25° C.) was 587 and the “CD/AOL molar ratio RM” value (SBE-β-CD 20% (w/w), 30° C.) was 50. For the same molecule, the “CD/AOL weight ratio Rm” value (SBE-β-CD 20% (w/w), 30° C.) was 469, the “CD/AOL molar ratio RM” value (SBE-β-CD 30% (w/w), 20° C.) was 70 and the “CD/AOL weight ratio Rm” value (SBE-β-CD 30% (w/w), 20° C.) was 650. For the same molecule, the “CD/AOL molar ratio RM” value [2] was 112, the “CD/AOL weight ratio Rm” value [2] was 1049 and the “CD/AOL molar ratio RM” value (SBE-β-CD 30% (w/w), 25° C.) was 56. For the same molecule, the “CD/AOL weight ratio Rm” value (SBE-β-CD 30% (w/w), 25° C.) was 522, the “CD/AOL molar ratio RM” value (SBE-β-CD 30% (w/w), 30° C.) was 45 and the “CD/AOL weight ratio Rm” value (SBE-β-CD 30% (w/w), 30° C.) was 417. For the same molecule, the “CD/AOL molar ratio RM” value (SBE-β-CD 40% (w/w), 20° C.) was 64, the “CD/AOL weight ratio Rm” value (SBE-β-CD 40% (w/w), 20° C.) was 600 and the “CD/AOL molar ratio RM” value [3] was 94. For the same molecule, the “CD/AOL weight ratio Rm” value [3] was 876, the “CD/AOL molar ratio RM” value (SBE-β-CD 40% (w/w), 25° C.) was 51 and the “CD/AOL weight ratio Rm” value (SBE-β-CD 40% (w/w), 25° C.) was 474. For the same molecule, the “CD/AOL molar ratio RM” value (SBE-β-CD 40% (w/w), 30° C.) was 41, the “CD/AOL weight ratio Rm” value (SBE-β-CD 40% (w/w), 30° C.) was 383 and the solubility (aqueous HP-β-CD solution, HP-β-CD 2.5% (w/w), 20° C. followed by 48 hours at 4° C.) was 11.6 µg/mL (≈ 48.3 µM). The solubility (aqueous HP-β-CD solution, HP-β-CD 5% (w/w), 20° C. followed by 48 hours at 4° C.) was 25.1 µg/mL (≈ 104 µM), the solubility (aqueous HP-β-CD solution, HP-β-CD 10% (w/w), 20° C. followed by 48 hours at 4° C.) was 52.7 µg/mL (≈ 219 µM) and the solubility (aqueous HP-β-CD solution, HP-β-CD 20% (w/w), 20° C. followed by 48 hours at 4° C.) was 109 µg/mL (≈ 452 µM). The solubility (aqueous HP-β-CD solution, HP-β-CD 30% (w/w), 20° C. followed by 48 hours at 4° C.) was 187 µg/mL (≈ 777 µM), the solubility (aqueous HP-β-CD solution, HP-β-CD 40% (w/w), 20° C. followed by 48 hours at 4° C.) was 270 µg/mL (≈ 1120 µM) and the solubility at 4 h (aqueous HP-β-CD solution, 20 °C, HP-β-CD 2.5% (w/w), 20° C., read-out: AOL solubility) was 13.4 µg/mL (≈ 55.7 µM). The solubility at 4 h (aqueous HP-β-CD solution, 20 °C, HP-β-CD 5% (w/w), 20° C., read-out: AOL solubility) was 27.3 µg/mL (≈ 114 µM), the solubility at 4 h (aqueous HP-β-CD solution, 30 °C, HP-β-CD 40% (w/w), 30° C., read-out: AOL solubility) was 644 µg/mL (≈ 2680 µM) and the solubility (aqueous SBE-β-CD solution, SBE-β-CD 2.5% (w/w), 20° C. followed by 48 hours at 4° C.) was 16.9 µg/mL (≈ 70.3 µM). The solubility (aqueous SBE-β-CD solution, SBE-β-CD 5% (w/w), 20° C. followed by 48 hours at 4° C.) was 34.6 µg/mL (≈ 144 µM), the solubility (aqueous SBE-β-CD solution, SBE-β-CD 10% (w/w), 20° C. followed by 48 hours at 4° C.) was 70.7 µg/mL (≈ 294 µM) and the solubility (aqueous SBE-β-CD solution, SBE-β-CD 20% (w/w), 20° C. followed by 48 hours at 4° C.) was 165 µg/mL (≈ 687 µM). The solubility (aqueous SBE-β-CD solution, SBE-β-CD 30% (w/w), 20° C. followed by 48 hours at 4° C.) was 286 µg/mL (≈ 1190 µM), the solubility (aqueous SBE-β-CD solution, SBE-β-CD 40% (w/w), 20° C. followed by 48 hours at 4° C.) was 457 µg/mL (≈ 1900 µM) and the solubility at 4 h (aqueous SBE-β-CD solution, 20 °C, SBE-β-CD 2.5% (w/w), 20° C., read-out: AOL solubility) was 29.3 µg/mL (≈ 122 µM). It also gave a solubility at 4 h (aqueous SBE-β-CD solution, 20 °C, SBE-β-CD 5% (w/w), 20° C., read-out: AOL solubility) of 59.7 µg/mL (≈ 248 µM), a solubility at 4 h (aqueous SBE-β-CD solution, 20 °C, SBE-β-CD 10% (w/w), 20° C., read-out: AOL solubility) of 125 µg/mL (≈ 521 µM) and a solubility at 4 h (aqueous SBE-β-CD solution, 20 °C, SBE-β-CD 20% (w/w), 20° C., read-out: AOL solubility) of 277 µg/mL (≈ 1150 µM). The solubility at 4 h (aqueous SBE-β-CD solution, 20 °C, SBE-β-CD 30% (w/w), 20° C., read-out: AOL solubility) was 462 µg/mL (≈ 1920 µM), the solubility at 4 h (aqueous SBE-β-CD solution, 20 °C, SBE-β-CD 40% (w/w), 20° C., read-out: AOL solubility) was 667 µg/mL (≈ 2770 µM) and the solubility at 4 h (aqueous SBE-β-CD solution, 25 °C, SBE-β-CD 2.5% (w/w), 25° C., read-out: AOL solubility) was 35.8 µg/mL (≈ 149 µM). For the same molecule, the solubility at 4 h (aqueous SBE-β-CD solution, 25 °C, SBE-β-CD 5% (w/w), 25° C., read-out: AOL solubility) was 74.9 µg/mL (≈ 312 µM), the solubility at 4 h (aqueous SBE-β-CD solution, 25 °C, SBE-β-CD 10% (w/w), 25° C., read-out: AOL solubility) was 156 µg/mL (≈ 651 µM) and the solubility at 4 h (aqueous SBE-β-CD solution, 25 °C, SBE-β-CD 20% (w/w), 25° C., read-out: AOL solubility) was 340 µg/mL (≈ 1420 µM). For the same molecule, the solubility at 4 h (aqueous SBE-β-CD solution, 25 °C, SBE-β-CD 30% (w/w), 25° C., read-out: AOL solubility) was 575 µg/mL (≈ 2390 µM), the solubility at 4 h (aqueous SBE-β-CD solution, 25 °C, SBE-β-CD 40% (w/w), 25° C., read-out: AOL solubility) was 844 µg/mL (≈ 3510 µM) and the solubility at 4 h (aqueous SBE-β-CD solution, 30 °C, SBE-β-CD 2.5% (w/w), 30° C., read-out: AOL solubility) was 44.7 µg/mL (≈ 186 µM). For the same molecule, the solubility at 4 h (aqueous SBE-β-CD solution, 30 °C, SBE-β-CD 5% (w/w), 30° C., read-out: AOL solubility) was 96.2 µg/mL (≈ 400 µM), the solubility at 4 h (aqueous SBE-β-CD solution, 30 °C, SBE-β-CD 10% (w/w), 30° C., read-out: AOL solubility) was 197 µg/mL (≈ 821 µM) and the solubility at 4 h (aqueous SBE-β-CD solution, 30 °C, SBE-β-CD 20% (w/w), 30° C., read-out: AOL solubility) was 427 µg/mL (≈ 1780 µM). For the same molecule, the solubility at 4 h (aqueous SBE-β-CD solution, 30 °C, SBE-β-CD 30% (w/w), 30° C., read-out: AOL solubility) was 720 µg/mL (≈ 3000 µM), the solubility at 4 h (aqueous SBE-β-CD solution, 30 °C, SBE-β-CD 40% (w/w), 30° C., read-out: AOL solubility) was 1040 µg/mL (≈ 4340 µM) and the solubility at 4 h (aqueous cyclodextrin solution, 20 °C, HP-β-CD 10% (w/w), 20° C., read-out: AOL solubility) was 61.3 µg/mL (≈ 255 µM). The solubility at 4 h (aqueous cyclodextrin solution, 20 °C, HP-β-CD 20% (w/w), 20° C., read-out: AOL solubility) was 145 µg/mL (≈ 602 µM), the solubility at 4 h (aqueous cyclodextrin solution, 20 °C, HP-β-CD 30% (w/w), 20° C., read-out: AOL solubility) was 243 µg/mL (≈ 1010 µM) and the solubility at 4 h (aqueous cyclodextrin solution, 20 °C, HP-β-CD 40% (w/w), 20° C., read-out: AOL solubility) was 344 µg/mL (≈ 1430 µM). For the same molecule, the solubility at 4 h (aqueous cyclodextrin solution, 25 °C, HP-β-CD 2.5% (w/w), 25° C., read-out: AOL solubility) was 19.5 µg/mL (≈ 81.1 µM), the solubility at 4 h (aqueous cyclodextrin solution, 25 °C, HP-β-CD 5% (w/w), 25° C., read-out: AOL solubility) was 40.1 µg/mL (≈ 167 µM) and the solubility at 4 h (aqueous cyclodextrin solution, 25 °C, HP-β-CD 10% (w/w), 25° C., read-out: AOL solubility) was 83.9 µg/mL (≈ 349 µM). The solubility at 4 h (aqueous cyclodextrin solution, 25 °C, HP-β-CD 20% (w/w), 25° C., read-out: AOL solubility) was 184 µg/mL (≈ 766 µM), the solubility at 4 h (aqueous cyclodextrin solution, 25 °C, HP-β-CD 30% (w/w), 25° C., read-out: AOL solubility) was 287 µg/mL (≈ 1200 µM) and the solubility at 4 h (aqueous cyclodextrin solution, 25 °C, HP-β-CD 40% (w/w), 25° C., read-out: AOL solubility) was 418 µg/mL (≈ 1740 µM). The solubility at 4 h (aqueous cyclodextrin solution, 30 °C, 30° C., 40% (w/w) HP-β-CD, read-out: highest solubility reached) was 650 µg/mL (≈ 2700 µM), the solubility at 4 h (aqueous cyclodextrin solution, 30 °C, 30° C., 40% SBE-β-CD, read-out: solubility) was over 1000 µg/mL and the solubility at 4 h (aqueous cyclodextrin solution, 30 °C, HP-β-CD 2.5% (w/w), 30° C., read-out: AOL solubility) was 26.1 µg/mL (≈ 109 µM). It also gave a solubility at 4 h (aqueous cyclodextrin solution, 30 °C, HP-β-CD 5% (w/w), 30° C., read-out: AOL solubility) of 51.4 µg/mL (≈ 214 µM), a solubility at 4 h (aqueous cyclodextrin solution, 30 °C, HP-β-CD 10% (w/w), 30° C., read-out: AOL solubility) of 114 µg/mL (≈ 476 µM) and a solubility at 4 h (aqueous cyclodextrin solution, 30 °C, HP-β-CD 20% (w/w), 30° C., read-out: AOL solubility) of 255 µg/mL (≈ 1060 µM). For the same molecule, the solubility at 4 h (aqueous cyclodextrin solution, 30 °C, HP-β-CD 30% (w/w), 30° C., read-out: AOL solubility) was 458 µg/mL (≈ 1900 µM).
